Data: PubChem BioAssay AID2060325 (Molecular Pharmacology Branch, DTP, NCI, 2025)

Tested on: SK-OV-3 multi-cell spheroids, viability
Experiment: Anticancer human tumor SK-OV-3 cell line growth inhibition [IpAb];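 as to viability, T/C: viability read after seven days of drug exposure; percent of DMSO vehicle control luminescence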
Conditions: for IC50: curve of first compound; for viability, T/C: stronger effect = lower value
Method in brief: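 Spheroids of 60% malignant cells, 25% HUVEC and 15% MSC were exposed to targeted agents combined with ipatasertib or abemaciclib. Doses started at or near clinical Cmax (10 microM when unknown) and fell in half-log steps.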

[1] = second compound 0.01 µM, first compound 0.00949 µM
[2] = second compound 0.01 µM, first compound 0.03 µM
[3] = second compound 0.01 µM, first compound 0.0949 µM
[4] = second compound 0.01 µM, first compound 0.3 µM
[5] = second compound 0.0316 µM, first compound 0.00949 µM
[6] = second compound 0.0316 µM, first compound 0.03 µM
[7] = second compound 0.0316 µM, first compound 0.0949 µM
[8] = second compound 0.0316 µM, first compound 0.3 µM
[9] = second compound 0.1 µM, first compound 0.00949 µM
[10] = second compound 0.1 µM, first compound 0.03 µM
[11] = second compound 0.1 µM, first compound 0.0949 µM
[12] = second compound 0.1 µM, first compound 0.3 µM
[13] = second compound 0.316 µM, first compound 0.00949 µM
[14] = second compound 0.316 µM, first compound 0.03 µM
[15] = second compound 0.316 µM, first compound 0.0949 µM
[16] = second compound 0.316 µM, first compound 0.3 µM
[17] = second compound 1 µM, first compound 0.00949 µM
[18] = second compound 1 µM, first compound 0.03 µM
[19] = second compound 1 µM, first compound 0.0949 µM
[20] = second compound 1 µM, first compound 0.3 µM

Row | Compound | IC50 (second compound 0.01 µM) | IC50 (second compound 0.0316 µM) | IC50 (second compound 0.1 µM) | IC50 (second compound 0.316 µM) | IC50 (second compound 1 µM) | viability, T/C [1] | viability, T/C [2] | viability, T/C [3] | viability, T/C [4] | viability, T/C [5] | viability, T/C [6] | viability, T/C [7] | viability, T/C [8] | viability, T/C [9] | viability, T/C [10] | viability, T/C [11] | viability, T/C [12] | viability, T/C [13] | viability, T/C [14] | viability, T/C [15] | other results
1 | CC(=O)c1c(C)c2cnc(Nc3ccc(N4CCNCC4)cn3)nc2n(C2CCCC2)c1=O + CCN1CCN(Cc2ccc(Nc3ncc(F)c(-c4cc(F)c5nc(C)n(C(C)C)c5c4)n3)nc2)CC1 | 274 nM | 63.1 nM | 8.82 nM | 2.61 nM | < 0.949 nM | 66% | 57.5% | 53.3% | 48.9% | 56.5% | 50.9% | 49.1% | 46.7% | 51.8% | 46.9% | 40.5% | 42% | 51% | 45.6% | 45.5% | viability, T/C (second compound 0.01 µM, first compound 0.000949 µM): 79.7%; viability, T/C (second compound 0.01 µM, first compound 0.003 µM): 77.4%; viability, T/C (second compound 0.0316 µM, first compound 0.000949 µM): 68%; viability, T/C (second compound 0.0316 µM, first compound 0.003 µM): 62.5%; viability, T/C (second compound 0.1 µM, first compound 0.000949 µM): 57.7%; viability, T/C (second compound 0.1 µM, first compound 0.003 µM): 52.3%; viability, T/C (second compound 0.316 µM, first compound 0.000949 µM): 51.5%; viability, T/C (second compound 0.316 µM, first compound 0.003 µM): 49%; viability, T/C [16]: 46.8%; viability, T/C (second compound 1 µM, first compound 0.000949 µM): 41.4%; viability, T/C (second compound 1 µM, first compound 0.003 µM): 43.1%; viability, T/C [17]: 42.3%; viability, T/C [18]: 35.9%; viability, T/C [19]: 39.2%; viability, T/C [20]: 42.4%
2 | CC(C)(C)c1cnc(CSc2cnc(NC(=O)C3CCNCC3)s2)o1 + CCN1CCN(Cc2ccc(Nc3ncc(F)c(-c4cc(F)c5nc(C)n(C(C)C)c5c4)n3)nc2)CC1 | 196 nM | 168 nM | 147 nM | 129 nM | < 9.49 nM | 99.3% | 109% | 104% | 18.4% | 80.2% | 87.8% | 88.3% | 14% | 63% | 70.4% | 80.5% | 15.7% | 60.1% | 62% | 63.4% | viability, T/C (second compound 0.01 µM, first compound 0.949 µM): 0.62%; viability, T/C (second compound 0.01 µM, first compound 3 µM): 1.2%; viability, T/C (second compound 0.0316 µM, first compound 0.949 µM): 1.38%; viability, T/C (second compound 0.0316 µM, first compound 3 µM): 1.32%; viability, T/C (second compound 0.1 µM, first compound 0.949 µM): 0.84%; viability, T/C (second compound 0.1 µM, first compound 3 µM): 0.9%; viability, T/C [16]: 17.3%; viability, T/C (second compound 0.316 µM, first compound 0.949 µM): 0.83%; viability, T/C (second compound 0.316 µM, first compound 3 µM): 1.1%; viability, T/C [17]: 44.7%; viability, T/C [18]: 51.1%; viability, T/C [19]: 50.1%; viability, T/C [20]: 12.7%; viability, T/C (second compound 1 µM, first compound 0.949 µM): 1.41%; viability, T/C (second compound 1 µM, first compound 3 µM): 1.15%
